{"source": "patent US20210324442A1", "about": "“In vitro Transcription-Translation Metabolic Networks to Measure Quantity or Activity of Enzymes” (priority 2020, published 2021)", "key": {"[1]": {"biological_target": "T1, phosphoenolpyruvate carboxylase (Escherichia coli, UniProt P00864)", "T1 construct": "many enzymes which likely retain activity in the lysate-based CFPS reactions consume precious ATP superfluously; endogenous in cells; host or cells: E. coli BL21 Star (DE3) cell extract (lysate)", "T1 sequence (P00864 whole entry)": "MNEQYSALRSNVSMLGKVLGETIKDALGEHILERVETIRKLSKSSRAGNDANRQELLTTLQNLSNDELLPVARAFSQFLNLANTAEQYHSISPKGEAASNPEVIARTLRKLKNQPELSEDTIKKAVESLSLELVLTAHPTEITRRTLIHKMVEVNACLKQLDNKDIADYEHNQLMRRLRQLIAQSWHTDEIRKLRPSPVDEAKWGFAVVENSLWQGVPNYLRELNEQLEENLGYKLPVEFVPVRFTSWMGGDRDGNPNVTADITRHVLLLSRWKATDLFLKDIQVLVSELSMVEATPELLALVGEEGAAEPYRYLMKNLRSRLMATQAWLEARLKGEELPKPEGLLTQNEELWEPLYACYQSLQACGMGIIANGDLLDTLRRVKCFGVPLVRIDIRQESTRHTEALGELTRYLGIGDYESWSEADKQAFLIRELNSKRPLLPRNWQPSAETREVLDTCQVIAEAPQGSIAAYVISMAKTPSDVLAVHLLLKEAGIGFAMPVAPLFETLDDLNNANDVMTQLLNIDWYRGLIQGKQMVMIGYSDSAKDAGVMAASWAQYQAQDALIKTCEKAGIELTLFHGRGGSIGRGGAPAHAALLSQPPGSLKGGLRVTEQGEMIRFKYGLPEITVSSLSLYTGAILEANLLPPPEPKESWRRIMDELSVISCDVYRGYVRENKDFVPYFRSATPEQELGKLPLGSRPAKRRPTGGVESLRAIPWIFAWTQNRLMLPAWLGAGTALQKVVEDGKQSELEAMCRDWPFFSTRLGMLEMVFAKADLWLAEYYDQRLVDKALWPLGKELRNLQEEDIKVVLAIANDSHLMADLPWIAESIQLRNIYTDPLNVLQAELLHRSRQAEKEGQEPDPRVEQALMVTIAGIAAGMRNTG", "test": "CFPS yield with raised initial Asp", "format": "biochemical, E. coli", "details": "12 mM Asp compared with conventional 2 mM Asp, one-hour reaction", "from_the_text": "The metabolic engineering approach presented in this work may also be useful for modulating protein expression yield or other desired products from cell-free reactions. Indeed, many enzymes which likely retain activity in the lysate-based CFPS reactions consume precious ATP superfluously. For example, GLNS, which is inhibited in this work, consumes ATP in the process of synthesizing Gln. […] Indeed, during the process of completing the work described herein, we learned that phosphoenolpyruvate carboxylase circumvents the production of ATP from PEP, and that its inhibition might improve CFPS performance. Accordingly, we identified Asp as an inhibitor of this enzyme and observed that CFPS initiated with 12 mM Asp compared with the conventional 2 mM Asp increased CFPS yield by 38% over a one-hour reaction (FIG. 8).\n(§1) Gln was omitted from Gln-sensing reactions. […] Results were obtained after 60 minutes."}, "[2]": {"biological_target": "T2, E. coli ASNase (Escherichia coli, UniProt P00805)", "T2 construct": "purchased", "T2 sequence (P00805 23-348)": "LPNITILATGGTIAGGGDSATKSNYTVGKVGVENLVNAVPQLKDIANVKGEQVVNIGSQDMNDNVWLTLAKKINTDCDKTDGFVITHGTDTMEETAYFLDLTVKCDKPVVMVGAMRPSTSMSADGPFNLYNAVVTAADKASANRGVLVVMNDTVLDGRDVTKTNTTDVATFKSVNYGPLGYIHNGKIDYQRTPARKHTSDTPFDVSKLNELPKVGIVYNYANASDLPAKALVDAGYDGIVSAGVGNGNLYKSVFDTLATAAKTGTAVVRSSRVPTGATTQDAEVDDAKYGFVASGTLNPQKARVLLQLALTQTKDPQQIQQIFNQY", "test": "CFPS reactions producing GFP in the presence of E. coli ASNase and ASP", "format": "biochemical", "details": "1.54 IU/mL ASNase + 6.5 mM ASP vs 1.54 IU/mL ASNase", "protocol": "In FIG. 8, CFPS reactions producing GFP in the presence of E. coli ASNase and ASP. Reported conditions include 0 IU/mL ASNase (no ASNase added), 1.54 IU/mL ASNase, and 1.54 IU/mL ASNase+6.5 mM ASP. […] No plasmid (NP) control tests for the impact of CFPS machinery and possible reaction products if added to a CFPS reaction producing GFP. As such, for the NP control 5 μL of a cellfree reaction product (where no plasmid was added such that no protein expression was templated) was added to a second CFPS reaction producing GFP. […] Error bars represent one standard deviation for n=2 CFPS reactions."}, "[3]": {"system": "E. coli-based CFPS reactions producing GFP", "test": "CFPS Gln sensor assay, aqueous samples (GFP reporter)", "format": "biochemical", "details": "70 mM MSO, Gln omitted as reagent, 1 hr, n=2, read-out: EC50 value (Hill equation fit of GFP response)", "protocol": "Reactions omitted Gln as a reagent but included 70 mM MSO. Aqueous samples of known Gln concentrations were added to the CFPS reaction. On the graph, the x-axis represents the final concentration of Gln in the CFPS reaction (ranging from 0 to 2400 μM). Each data point represents a CFPS reaction after 1 hr with n=2 at each Gln concentration. […] The inset plots linear regression of the data. The solid blue line represents the fit, solid red bands represent the 95% confidence of fit, and dashed black bands represent the 95% confidence range for a single-point prediction.\nExample 1: E. coli cell extract containing bacteriophage T7 RNA polymerase was prepared as previously described. Briefly, 5 mL overnight culture of BL21 Star™ (DE3) was added to 100 mL 2xYT. When OD600 reached ˜2.0, culture was transferred to 900 mL 2xYT. 1 L cultures were induced with 1 mM IPTG at OD600 0.4-0.6 and harvested at OD600 ˜2.5. All bacterial cultures were incubated at 37° C. and 280 RPM. Cells were homogenized with three passes at 21000 psi using the EmulsiflexB15 French press homogenizer (Avestin, Ottawa, Calif.) and centrifuged at 12000 RCF for 10 min. Clarified lysate was then incubated at 37° C. and 280 RPM for 30 min. Cell extract was dialyzed using 14 kDa MW cut-off cellulose membrane tubing (MilliporeSigma, Billerica, Mass.) for 4 hr at 4° C. immediately following incubation at 37° C. […]"}, "[4]": {"system": "E. coli-based CFPS reactions producing GFP", "test": "CFPS Gln sensor assay in the presence of human serum", "format": "biochemical", "details": "70 mM MSO, RNAse inhibitor, 14% (v/v) human serum, 1 hr, n=2; read-out: EC50 value (Hill equation fit of GFP response)", "protocol": "Reactions omitted Gln as a reagent but contained 70 mM MSO, RNAse inhibitor, and 14% (v/v) human serum with increasing Gln concentrations. The x-axis represents the corresponding Gln concentration in the CFPS reaction. Each data point represents a CFPS reaction after 1 hr with n=2 at each CFPS Gln concentration. […] Solid blue line represents the fit, solid red bands represent the 95% confidence of fit, and dashed black bands represent the 95% confidence range for a single-point prediction.\nExample 1: E. coli cell extract containing bacteriophage T7 RNA polymerase was prepared as previously described. Briefly, 5 mL overnight culture of BL21 Star™ (DE3) was added to 100 mL 2xYT. When OD600 reached ˜2.0, culture was transferred to 900 mL 2xYT. 1 L cultures were induced with 1 mM IPTG at OD600 0.4-0.6 and harvested at OD600 ˜2.5. All bacterial cultures were incubated at 37° C. and 280 RPM. Cells were homogenized with three passes at 21000 psi using the EmulsiflexB15 French press homogenizer (Avestin, Ottawa, Calif.) and centrifuged at 12000 RCF for 10 min. Clarified lysate was then incubated at 37° C. and 280 RPM for 30 min. Cell extract was dialyzed using 14 kDa MW cut-off cellulose membrane tubing (MilliporeSigma, Billerica, Mass.) for 4 hr at 4° C. immediately following incubation at 37° C.\nas §1"}, "[5]": {"biological_target": "glutamine synthetase (GLNS) (Escherichia coli, UniProt P0A9C5)", "sequence (P0A9C5 2-469 limits assumed)": "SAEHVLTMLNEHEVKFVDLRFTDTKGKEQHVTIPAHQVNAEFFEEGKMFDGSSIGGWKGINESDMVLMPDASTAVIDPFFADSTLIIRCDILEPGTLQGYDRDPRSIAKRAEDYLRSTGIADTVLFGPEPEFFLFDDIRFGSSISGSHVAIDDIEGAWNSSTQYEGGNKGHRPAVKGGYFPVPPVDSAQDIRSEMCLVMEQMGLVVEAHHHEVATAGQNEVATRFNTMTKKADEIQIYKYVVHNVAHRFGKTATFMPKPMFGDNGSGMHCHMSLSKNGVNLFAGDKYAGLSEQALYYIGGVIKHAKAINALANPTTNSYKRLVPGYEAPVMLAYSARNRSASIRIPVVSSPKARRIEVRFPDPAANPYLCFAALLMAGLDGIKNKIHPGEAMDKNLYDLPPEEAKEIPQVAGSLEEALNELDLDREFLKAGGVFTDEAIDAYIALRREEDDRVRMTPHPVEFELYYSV", "quoted_text": "Example 2: Cell-free protein synthesis reactions were formulated in 96-well plates with the following specifications: 25% (v/v) cell extract, 12 nM pY71-sfGFP^37, 10-20 mM magnesium glutamate (concentration adjusted for optimal protein yield), 1 mM 1,4-diaminobutane, 1.5 mM spermidine, 40 mM phosphoenolpyruvate, 10 mM ammonium glutamate, 175 mM potassium glutamate, 2.7 mM potassium oxalate, 0.33 mM nicotinamide adenine dinucleotide, 0.27 mM coenzyme A, 1.2 mM ATP, 0.86 mM CTP, 0.86 mM GTP, 0.86 mM UTP, 0.17 mM folinic acid, 6 mM aspartate, 6 mM asparagine, and 2 mM of the 16 remaining proteinogenic amino acids. Gln was omitted from Gln-sensing reactions. For reactions containing human serum (Gemini Bio Products, Sacramento, Calif.), murine RNAse inhibitor (New England BioLabs, Ipswich MA) was added to a final concentration of 0.8 U/μL CFPS. Reactions were incubated at 37° C. in a BioTek SynergyMX plate reader, shaken for 30 seconds, and analyzed for fluorescence every 4-6 minutes at 480/510 nm excitation/emission wavelengths. Results were obtained after 60 minutes. Assay signal strength was calculated as the ratio of GFP RFU at saturating Gln concentrations to the GFP RFU at 0 μM Gln."}}}
{"compound": "N[C@@H](CC(=O)O)C(=O)O", "note": "[Asp, L-aspartate]", "values": [{"measurement": "increase of CFPS yield", "setting": "[1]", "result": 38, "unit": "%"}, {"measurement": "effect of ASP supplementation on ASNase activity", "setting": "[2]", "result": "inhibitory effect"}]}
{"compound": "NC(=O)CC[C@H](N)C(=O)O", "note": "[Gln, L-glutamine]", "values": [{"measurement": "EC50", "setting": "[3]", "result": 154, "unit": "µM"}, {"measurement": "EC50", "setting": "[4]", "result": 100, "unit": "µM"}]}
{"compound": "CS(=N)(=O)CC[C@H](N)C(=O)O", "note": "(stereo partly drawn) [MSO, Methionine sulfoximine]", "values": [{"measurement": "effect on CFPS expression yield", "setting": "[5]; concentrations up to 80 mM in the presence of 2 mM Gln", "result": "little effect"}, {"measurement": "signal-to-noise ratio of the assay", "setting": "[5]; increased linearly with increasing MSO concentration up to 70 μM", "result": "~10"}]}
